Laboratory results as given in patent US8598145B2, “Mitochondrially delivered anti-cancer compounds” (priority 2008, dated 2013).

Experiments:
Jurkat, U937, Meso-2 = details: cited from earlier work
Meso-2 = experiment: MTT viability assay (IC50); format: cell-based, human; details: Meso-2, ~60% confluency
Description: (§1) The following cell lines used in this study were obtained from ATCC, unless specified otherwise: Human T lymphoma cells Jurkat, human mesothelioma cells Meso-I, MM-BI, Ist-Mes, Ist-Mes-2 (Pass, H. I. et al. Characteristics of nine newly derived mesothelioma cell lines. Ann. Thorac. Surg. 59, 835-844 (1995)), human breast cancer cells MCF-7 (erbB2-low) and MDA-MB-453 (erbB2-high), human colorectal cells HCT-116, human hepatocarcinoma cells Huh-7, mouse mesothelioma cells AE17 (Jackaman, C. et al. IL-2 intratumoral immunotherapy enhances CD8+ T cells that mediate destruction of tumor cells and tumor-associated vasculature: a novel mechanism for IL-2. J. Immunol. 171, […] (2003), human non-malignant mesothelial cells Met-5A, […] (Claycomb, W. C. et al. HL-1 cells: a cardiac muscle cell line that contracts and retains phenotypic characteristics of the adult cardiomyocyte. Proc. Natl. Acad. Sci. USA 95, 2979-2984 […]) and H9c2, and the human endothelial-like cells EAhy926 (Edgell, C. J., McDonald, C. C. & Graham, J. B. Permanent cell line expressing human factor VIII-related antigen established by hybridization. Proc. Natl. Acad. Sci. USA 80, 3734-3737 (1983)). Jurkat cells were grown in the RPMI medium while DMEM was used for other malignant cell lines and for Met-5A cells, supplemented with 10% FCS and antibiotics. HL-1 cells, maintained in fibronectin/gelatine-coated dishes, were grown in the Claycomb medium supplemented with noradrenalin (Claycomb, W. C. et al. HL-1 cells: a cardiac muscle cell line that contracts and retains phenotypic characteristics of the adult cardiomyocyte. Proc. Natl. Acad. Sci. USA 95, 2979-2984 […]), EAhy926 cells were grown in complete DMEM supplemented with HAT (Edgell, C. J., McDonald, C. C. & Graham, J. B. Permanent cell line expressing human factor VIII-related antigen established by hybridization. Proc. Natl. Acad. Sci. USA 80, 3734-3737 (1983)). Cells deficient in mtDNA (ρ^0 phenotype) were prepared as detailed in Weber, T. et al., (Mitochondria play a central role in apoptosis induced by α-tocopheryl succinate, an agent with anticancer activity. Comparison with receptor-mediated pro-apoptotic signaling. Biochemistry 42, 4277-4291 (2003)). Acquisition of the ρ^0 phenotype was confirmed by lack of expression by the cells of the mtDNA-encoded cytochrome c oxidase subunit II (COXII not shown). Chinese hamster lung fibroblasts deficient in complex I (B10 cells) (See, B. B. et al. Molecular remedy of complex I defects: rotenone-insensitive internal NADH-quinone oxidoreductase of Saccharomyces cerevisiae mitochondria restores the NADH oxidase activity of complex I-deficient mammalian cells. Proc. Natl. Acad. Sci. USA 95, 9167-9171 (1998)) and complex II (CybL^−/−; B9 cells) (Oostveen, F. G., Au, H. C., Meijer, P. J. & Scheffler, I. E. A Chinese hamster mutant cell line with a defect in the integral membrane protein CII-3 of complex II of the mitochondrial electron transport chain. J. Biol. Chem. 270: 26104-26108 (1995)) as well as the parental cells (B1 cells) (Oostveen, F. G., Au, H. C., Meijer, P. J. & Scheffler, I. E. A Chinese hamster mutant cell line with a defect in the integral membrane protein CII-3 of complex II of the mitochondrial electron transport chain. J. Biol. Chem. 270: 26104-26108 (1995)) were grown in DMEM with 10% FCS, antibiotics, 10 mg/ml glucose and non-essential aminoacids.
(§2) Toxicity of α-TOS, VE11S (“VES”), MitoVE3S, MitoVE5S, MitoVE7S, MitoVE9S, MitoVE11S (“MitoVES”), MitoVE11AE (“MitoVEAE”), MitoVE11F (“MitoVEF”), MitoVE11M (“MitoVEM”), and VES4TPP towards cancer cells was assessed on the basis of IC50, as detailed in Turanek, J., et al. ((2008). Liposomal formulation of vitamin E analogs as an efficient and selective anti-cancer treatment. Clin. Cancer Res. (submitted)). […]

MCF-7 = experiment: MTT viability assay (IC50); format: cell-based, human; details: MCF-7, ~60% confluency
Description: as §1, §2

Jurkat = experiment: MTT viability assay (IC50); format: cell-based, human
Description: as §1, §2

HL-1 = experiment: MTT viability assay (IC50); format: cell-based, rat; details: HL-1, ~60% confluency
Description: as §1, §2

H9c2 = experiment: MTT viability assay (IC50); format: cell-based, rat; details: H9c2, ~60% confluency
Description: as §1, §2

B16-F1/ nude mice = details: Kogure et al 2005; cited from earlier work
LNCaP, PC-3 = details: Shiau et al, 2006; cited from earlier work
MCF7 = details: Arya et al; cited from earlier work
[1] = system: Jurkat, HBT11, MCF7, MCF7-C3; details: Table II; cited from earlier work
NB4, HT93 = details: cited from earlier work
B16(F10) = details: cited from earlier work
[2] = system: neoplastIc + SA mammary epithelial cells; details: cited from earlier work
[3] = biological target: T1, α-tocopherol transfer protein (α-TTP) (Rattus norvegicus, UniProt P41034); details: Hosomi et al 1997; cited from earlier work
T1 sequence (P41034 1-278): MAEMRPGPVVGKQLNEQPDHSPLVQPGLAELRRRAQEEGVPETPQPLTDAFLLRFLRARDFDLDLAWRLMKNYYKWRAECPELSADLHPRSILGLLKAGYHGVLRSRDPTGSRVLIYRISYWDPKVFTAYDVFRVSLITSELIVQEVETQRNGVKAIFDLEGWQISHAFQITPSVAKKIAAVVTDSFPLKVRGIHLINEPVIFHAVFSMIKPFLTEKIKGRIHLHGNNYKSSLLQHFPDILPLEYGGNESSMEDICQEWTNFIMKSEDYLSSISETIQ

MDA-MB-435, MCF7 = details: cited from earlier work
[4] = system: Jurkat, HBT1, MCF7, MCF7-C3, U937, Meso-2; details: cited from earlier work
[5] = system: Ras-transformed B9 cells with a defective Complex II; experiment: Apoptosis in Ras-transformed B1 and B9 cells (FIG. 4C); format: cell-based, Chinese hamster
Method: 4C—After 24 h of treatment with Complex II targeting drugs TTFA or MitoVES, Ras transformed B1 and B9 cells were assessed for apoptosis using the Annexin V binding method.
as §1, with “Chinese hamster lung fibroblasts deficient in complex I (B10 cells) (See, B. B. et al. Molecular remedy of complex I defects: rotenone-insensitive internal NADH-quinone oxidoreductase of Saccharomyces cerevisiae mitochondria restores the NADH oxidase activity of complex I-deficient mammalian cells. Proc. Natl. Acad. Sci. USA 95, 9167-9171 (1998)) and complex II (CybL^−/−; B9 cells) (Oostveen, F. G., Au, H. C., Meijer, P. J. & Scheffler, I. E. A Chinese hamster mutant cell line with a defect in the integral membrane protein CII-3 of complex II of the mitochondrial electron transport chain. J. Biol. Chem. 270: 26104-26108 (1995)) as well as the parental cells (B1 cells) (Oostveen, F. G., Au, H. C., Meijer, P. J. & Scheffler, I. E. A Chinese hamster mutant cell line with a defect in the integral membrane protein CII-3 of complex II of the mitochondrial electron transport chain. J. Biol. Chem. 270: 26104-26108 (1995)) were grown in DMEM with 10% FCS, antibiotics, 10 mg/ml glucose and non-essential aminoacids.” left out

[6] = Table VI: Jurkat 0.5 × 10^6 per ml, analogs added as EtOH solution, MTT

Cc1c(C)c2c(c(C)c1NC(=O)CCC(=O)O)CCC(C)(CCCC(C)CCCC(C)CCCC(C)C)O2 (stereo not shown) [Nr 12]
IC50 (Jurkat, U937, Meso-2): 13 µM

Cc1c(C)c2c(c(C)c1OC(=O)CCC(=O)OCCCC[P+](c1ccccc1)(c1ccccc1)c1ccccc1)CCC(C)(CCCC(C)CCCC(C)CCCC(C)C)O2 (stereo not shown) [VES4TPP]
IC50 (Meso-2): 28 ± 6 µM | IC50 (MCF-7): 19 ± 3 µM | IC50 (Jurkat; Jurkat, treated at 0.5 × 10^6 per ml, MTT viability curves): 21 ± 5 µM | IC50 (Jurkat; [6]): 21 ± 5 µM | IC50 (HL-1): > 100 µM | IC50 (H9c2): > 100 µM

Cc1c(C)c2c(c(C)c1OC(=O)CC(=O)O)CCC(C)(CCCC(C)CCCC(C)CCCC(C)C)O2 (stereo not shown) [Nr 11]
cytotoxicity in mice inoculated with B16-F1 melanoma cells (B16-F1/ nude mice): non-selective cytotoxicity

Cc1c(C)c2c(c(C)c1OC(=O)C(=O)O)CCC(C)(CCCC(C)CCCC(C)CCCC(C)C)O2 (stereo not shown) [Nr 10]
cytotoxicity in mice inoculated with B16-F1 melanoma cells (B16-F1/ nude mice): non-selective cytotoxicity

Cc1c(C)c2c(c(C)c1OC(=O)CCC(=O)O)CCC(C)(CCCC(C)CCCC(C)C)O2 (stereo not shown) [Nr 43]
IC50 (LNCaP, PC-3): 4 to 9 µM

Cc1c(C)c2c(c(C)c1NC(=O)C=CC(=O)O)CCC(C)(CCCC(C)CCCC(C)CCCC(C)C)O2 (stereo not shown) [Nr 13]
IC50 (Jurkat, U937, Meso-2): 2 µM

Cc1c(C)c2c(c(C)c1OC(=O)C(N)CCCCN)CCC(C)(CCCC(C)CCCC(C)CCCC(C)C)O2 (stereo not shown) [Nr 16]
IC50 (MCF7): 12 µM

Cc1cc(OC(=O)CCC(=O)O)cc2c1OC(C)(CCCC(C)CCCC(C)CCCC(C)C)CC2 (stereo not shown) [Nr 35]
IC50 [1]: 66 µM

Cc1cc(NC(=O)C=CC(=O)O)cc2c1OC(C)(CCCC(C)CCCC(C)CCCC(C)C)CC2 (stereo not shown) [Nr 38]
IC50 (Jurkat, U937, Meso-2): 9 µM

CC1=C(/C=C/C(C)=C/C=C/C(C)=C/C(=O)Oc2c(C)c(C)c3c(c2C)CCC(C)(CCCC(C)CCCC(C)CCCC(C)C)O3)C(C)(C)CCC1 (stereo not shown) [Nr 28]
IC50 (NB4, HT93): 0.1 to 1 µM

CC(C)=CCCC(C)=CCCC(C)=CCCC1(C)CCc2cc(O)c(C)c(C)c2O1 (stereo not shown) [Nr 56]
IC50 (B16(F10)): 20 µM | IC50 [2]: 4 µM

Cc1c(C)c2c(c(C)c1OC(=O)CCC(=O)O)CCC(C)(C)O2 [Nr 46]
IC50 (LNCaP, PC-3): > 100 µM

Cc1c(C)c2c(c(C)c1OC(=O)C(N)CCCCN)CCC(C)(CO)O2 (stereo not shown) [Nr 47]
IC50 (MCF7): 194 µM

Cc1cc(O)cc2c1O[C@](C)(CCC[C@H](C)CCC[C@H](C)CCCC(C)C)CC2 [δ-tocopherol]
relative affinities for α-TTP [3]: 2%

CCCCC(=O)OCC1(C)CCc2c(C)c(OC(=O)C(N)CCCCN)c(C)c(C)c2O1 (stereo not shown) [Nr 49]
IC50 (MCF7): 15 µM

Cc1cc(NC(=O)CCC(=O)O)cc2c1OC(C)(CCCC(C)CCCC(C)CCCC(C)C)CC2 (stereo not shown) [Nr 37]
IC50 (Jurkat, U937, Meso-2): 20 µM

CC(C)=CCCC(C)=CCCC(C)=CCCC1(C)CCc2cc(O)cc(C)c2O1 (stereo not shown) [Nr 59]
IC50 (B16(F10)): 10 µM

Cc1cc(OC(=O)C=CC(=O)O)cc2c1OC(C)(CCCC(C)CCCC(C)CCCC(C)C)CC2 (stereo not shown) [Nr 36]
IC50 [1]: 49 µM

Cc1c(C)c2c(c(C)c1OCC(=O)O)CCC(C)(CCCC(C)CCCC(C)CCCC(C)C)O2 (stereo not shown) [Nr 21]
EC50 (MDA-MB-435, MCF7): 15 to 20 µg/mL

CC(C)=CCCC(C)=CCCC(C)=CCCC1(C)CCc2cc(O)ccc2O1 (stereo not shown) [Nr 60]
IC50 (B16(F10)): 0.9 µM

CCCCCOCC1(C)CCc2c(C)c(OC(=O)C(N)CCCCN)c(C)c(C)c2O1 (stereo not shown) [Nr 48]
IC50 (MCF7): 22 µM

Cc1c(O)cc2c(c1C)O[C@](C)(CCC[C@H](C)CCC[C@H](C)CCCC(C)C)CC2 [γ-tocopherol]
relative affinities for α-TTP [3]: 9%

Cc1cc(OC(=O)CCC(=O)O)c(C)c2c1OC(C)(CCCC(C)CCCC(C)CCCC(C)C)CC2 (stereo not shown) [Nr 32]
IC50, printed relative to α-TOS [4]: 50% of α-TOS

Cc1c(C)c2c(c(C)c1OC(=O)C=CC(=O)O)CCC(C)(CCCC(C)CCCC(C)CCCC(C)C)O2 (stereo not shown) [Nr 3]
IC50 [1]: 22 µM

O=C(CC(=O)C(F)(F)F)c1cccs1 [TTFA, reference compound]
sensitivity to apoptosis of Ras-transformed B9 cells compared to Ras-transformed B1 cells ([5]; 24 h treatment, Annexin V binding): much less sensitive | sensitivity after reconstitution of Complex II function (human SDHC) in Ras-transformed B9 cells ([5]; B9 cells transfected to express human SDHC): restored the sensitivity

Cc1c(C)c2c(c(C)c1O)CC[C@@](C)(CCC[C@H](C)CCC[C@H](C)CCCC(C)C)O2 [α-TOH, α-tocopherol, reference compound]
IC50 (Jurkat; [6]): > 100 µM | relative affinities for α-TTP [3]: 100%

Cc1c(C)c2c(c(C)c1OCCC(=O)O)CCC(C)(CCCC(C)CCCC(C)C)O2 (stereo not shown) [Nr 44]
IC50 (LNCaP, PC-3): 4 to 8 µM

Cc1cc(O)c(C)c2c1O[C@](C)(CCC[C@H](C)CCC[C@H](C)CCCC(C)C)CC2 [β-tocopherol]
relative affinities for α-TTP [3]: 38%

COC(=O)CCC(=O)Nc1c(C)c(C)c2c(c1C)CCC(C)(CCCC(C)CCCC(C)CCCC(C)C)O2 (stereo not shown) [Nr 14]
IC50 (Jurkat, U937, Meso-2): > 100 µM
